PMC5218480 (PLoS ONE, 2017)

Test system: MV-4-11 cells
Experiment: Gene expression microarray analysis (Affymetrix PrimeView) and GSEA
Assay type: cell-based, human
Set-up: RFU PODN (11730768_x_at) / Fold change /veh PODN (11730768_x_at) / RFU LINC00158 (11744669_a_at) / Fold change /veh LINC00158 (11744669_a_at) / RFU DUSP10 (11751237_a_at) / Fold change /veh DUSP10 (11751237_a_at) / RFU ID3 (11757404_x_at) / Fold change /veh ID3 (11757404_x_at) / RFU PLEKHG5 (11737974_s_at) / Fold change /veh PLEKHG5 (11737974_s_at) / RFU LRRC4B (11730491_at) / Fold change /veh LRRC4B (11730491_at) / RFU GIMAP4 (11747438_a_at) / Fold change /veh GIMAP4 (11747438_a_at) / RFU KRT8 (11758183_x_at) / Fold change /veh KRT8 (11758183_x_at) / RFU CNN1 (11734310_a_at) / Fold change /veh CNN1 (11734310_a_at) / RFU VPS37D (11726825_at) / Fold change /veh VPS37D (11726825_at) / RFU C10orf10 (11716522_x_at) / Fold change /veh C10orf10 (11716522_x_at) / RFU KIR2DL2 /// KIR2DL4 /// KIR2DL5A /// KIR2DL5B /// KIR2DS1 /// KIR2DS2 /// KIR2DS3 /// KIR2DS4 /// KIR3DL3 /// KIR3DL3 /// KIR3DS1 (11738374_at) / Fold change /veh KIR2DL2 /// KIR2DL4 /// KIR2DL5A /// KIR2DL5B /// KIR2DS1 /// KIR2DS2 /// KIR2DS3 /// KIR2DS4 /// KIR3DL3 /// KIR3DL3 /// KIR3DS1 (11738374_at) / RFU C1QL1 (11718748_at) / Fold change /veh C1QL1 (11718748_at) / RFU TMPRSS4 (11747572_a_at) / Fold change /veh TMPRSS4 (11747572_a_at) / RFU HAMP (11756126_x_at) / Fold change /veh HAMP (11756126_x_at) / RFU RNFT2 (11725882_a_at) / Fold change /veh RNFT2 (11725882_a_at) / RFU NR4A2 (11747474_a_at) / Fold change /veh NR4A2 (11747474_a_at) / RFU ABCC12 (11746883_a_at) / Fold change /veh ABCC12 (11746883_a_at) / RFU TMEM136 (11760407_x_at) / Fold change /veh TMEM136 (11760407_x_at) / RFU CLDN22 /// WWC2 (11732394_at) / Fold change /veh CLDN22 /// WWC2 (11732394_at) / RFU HLA-DPB1 (11760878_x_at) / Fold change /veh HLA-DPB1 (11760878_x_at) / RFU SPINT1 (11716480_a_at) / Fold change /veh SPINT1 (11716480_a_at) / RFU GAP43 (11754022_s_at) / Fold change /veh GAP43 (11754022_s_at) / RFU A4GNT (11735810_at) / Fold change /veh A4GNT (11735810_at) / RFU PRB3 (11715151_x_at) / Fold change /veh PRB3 (11715151_x_at) / RFU TUBB4B (11761932_at) / Fold change /veh TUBB4B (11761932_at) / RFU CAPN14 (11732068_a_at) / Fold change /veh CAPN14 (11732068_a_at) / RFU TMCC2 (11721928_a_at) / Fold change /veh TMCC2 (11721928_a_at) / RFU IRGQ (11745062_a_at) / Fold change /veh IRGQ (11745062_a_at) / RFU FAM174B (11720279_a_at) / Fold change /veh FAM174B (11720279_a_at) / RFU TMPRSS4 (11748680_a_at) / Fold change /veh TMPRSS4 (11748680_a_at) / RFU FAM212B (11763350_a_at) / Fold change /veh FAM212B (11763350_a_at) / RFU PLEKHG5 (11743358_a_at) / Fold change /veh PLEKHG5 (11743358_a_at) / RFU ZSCAN30 (11745921_a_at) / Fold change /veh ZSCAN30 (11745921_a_at) / RFU CMKLR1 (11741424_a_at) / Fold change /veh CMKLR1 (11741424_a_at) / RFU LOC101060620 /// MAPK8IP1 (11723275_at) / Fold change /veh LOC101060620 /// MAPK8IP1 (11723275_at) / RFU SPTSSB (11747773_x_at) / Fold change /veh SPTSSB (11747773_x_at) / RFU PRSS12 (11739890_at) / Fold change /veh PRSS12 (11739890_at) / RFU BIN1 (11741810_x_at) / Fold change /veh BIN1 (11741810_x_at) / RFU WNT11 (11732464_a_at) / Fold change /veh WNT11 (11732464_a_at) / RFU C10orf10 (11716521_a_at) / Fold change /veh C10orf10 (11716521_a_at) / RFU C5orf56 (11738089_at) / Fold change /veh C5orf56 (11738089_at) / RFU CYB561 (11721691_x_at) / Fold change /veh CYB561 (11721691_x_at) / RFU ANKRD19P (11752326_a_at) / Fold change /veh ANKRD19P (11752326_a_at) / RFU OR2T12 /// OR2T33 /// OR2T8 (11738714_s_at) / Fold change /veh OR2T12 /// OR2T33 /// OR2T8 (11738714_s_at) / RFU VCAN (11748164_a_at) / Fold change /veh VCAN (11748164_a_at) / RFU JSRP1 (11732532_at) / Fold change /veh JSRP1 (11732532_at) / RFU KRTAP10-11 (11738290_x_at) / Fold change /veh KRTAP10-11 (11738290_x_at) / RFU MYO3A (11730013_a_at) / Fold change /veh MYO3A (11730013_a_at) / RFU EBF3 (11725865_a_at) / Fold change /veh EBF3 (11725865_a_at) / RFU CAMK2N1 (11719241_x_at) / Fold change /veh CAMK2N1 (11719241_x_at) / RFU C5orf56 (11738088_a_at) / Fold change /veh C5orf56 (11738088_a_at) / RFU OLFML3 (11715873_a_at) / Fold change /veh OLFML3 (11715873_a_at) / RFU LOC100653217 /// NTM (11731650_a_at) / Fold change /veh LOC100653217 /// NTM (11731650_a_at) / RFU MAPK11 (11762145_a_at) / Fold change /veh MAPK11 (11762145_a_at) / RFU FIZ1 (11724087_x_at) / Fold change /veh FIZ1 (11724087_x_at) / RFU OASL (11726364_x_at) / Fold change /veh OASL (11726364_x_at) / RFU SOX15 (11748057_x_at) / Fold change /veh SOX15 (11748057_x_at) / RFU CD79A (11719716_a_at) / Fold change /veh CD79A (11719716_a_at) / RFU HIST1H1D (11736915_at) / Fold change /veh HIST1H1D (11736915_at) / RFU CASKIN2 (11723855_a_at) / Fold change /veh CASKIN2 (11723855_a_at) / RFU LOC730098 (11760151_x_at) / Fold change /veh LOC730098 (11760151_x_at) / RFU OR4N2 (11742367_at) / Fold change /veh OR4N2 (11742367_at) / RFU PRRT2 (11749266_a_at) / Fold change /veh PRRT2 (11749266_a_at) / RFU SNX32 (11753110_a_at) / Fold change /veh SNX32 (11753110_a_at) / RFU CDHR5 (11726645_a_at) / Fold change /veh CDHR5 (11726645_a_at) / RFU RCAN1 (11760418_a_at) / Fold change /veh RCAN1 (11760418_a_at) / RFU FAM167A (11723789_a_at) / Fold change /veh FAM167A (11723789_a_at) / RFU FAM26E (11764081_at) / Fold change /veh FAM26E (11764081_at) / RFU ISYNA1 (11749810_s_at) / Fold change /veh ISYNA1 (11749810_s_at) / RFU ACY1 (11761880_at) / Fold change /veh ACY1 (11761880_at) / RFU 11764098_at / Fold change /veh 11764098_at / RFU SAMD14 (11745864_x_at) / Fold change /veh SAMD14 (11745864_x_at) / RFU NPB (11741838_a_at) / Fold change /veh NPB (11741838_a_at) / RFU TMPRSS6 (11731388_a_at) / Fold change /veh TMPRSS6 (11731388_a_at) / RFU KRTAP10-2 (11738614_at) / Fold change /veh KRTAP10-2 (11738614_at) / RFU ARHGAP8 /// PRR5-ARHGAP8 (11727945_x_at) / Fold change /veh ARHGAP8 /// PRR5-ARHGAP8 (11727945_x_at) / RFU KRTAP5-7 /// NADSYN1 (11734609_at) / Fold change /veh KRTAP5-7 /// NADSYN1 (11734609_at) / RFU RASL12 (11751679_a_at) / Fold change /veh RASL12 (11751679_a_at) / RFU CDKN2B (11736163_a_at) / Fold change /veh CDKN2B (11736163_a_at) / RFU PRF1 (11729649_at) / Fold change /veh PRF1 (11729649_at) / RFU, ZNF638 /// ZNF638-IT1 / Fold change vs veh, ZNF638 /// ZNF638-IT1 / RFU, PANK3 / Fold change vs veh, PANK3 / RFU, SH3YL1 / Fold change vs veh, SH3YL1 / RFU, ZEB2 / Fold change vs veh, ZEB2 / RFU, NRIP1 / Fold change vs veh, NRIP1 / RFU, PTTG1IP / Fold change vs veh, PTTG1IP / RFU, CAPN2 / Fold change vs veh, CAPN2 / RFU, MED14 / Fold change vs veh, MED14 / RFU, SNORA58 / Fold change vs veh, SNORA58 / RFU, C1orf63 / Fold change vs veh, C1orf63 / RFU, LRRFIP1 / Fold change vs veh, LRRFIP1 / RFU, NDUFAF7 / Fold change vs veh, NDUFAF7 / RFU, SLC12A2 / Fold change vs veh, SLC12A2 / RFU, IBTK / Fold change vs veh, IBTK / RFU, ESF1 / Fold change vs veh, ESF1 / Fold change vs veh, TMEM50B / RFU, TAOK1 / Fold change vs veh, TAOK1 / RFU, ACBD3 / Fold change vs veh, ACBD3 / RFU, TMA16 / Fold change vs veh, TMA16 / RFU, RWDD3 / Fold change vs veh, RWDD3 / RFU, BCAT1 / Fold change vs veh, BCAT1 / RFU, EDEM3 / Fold change vs veh, EDEM3 / RFU, TMEM33 / Fold change vs veh, TMEM33 / RFU, WDR75 / Fold change vs veh, WDR75 / RFU, AHCTF1 / Fold change vs veh, AHCTF1 / RFU, TFRC / Fold change vs veh, TFRC / RFU, ZDHHC17 / Fold change vs veh, ZDHHC17 / RFU, NOM1 / Fold change vs veh, NOM1 / RFU, ARL8B / Fold change vs veh, ARL8B / RFU, ZBTB11 / Fold change vs veh, ZBTB11 / RFU, TAMM41 / Fold change vs veh, TAMM41 / RFU, KIAA1704 /// LOC100996395 / Fold change vs veh, KIAA1704 /// LOC100996395 / RFU, ING1 / Fold change vs veh, ING1 / RFU, TRMT61B / Fold change vs veh, TRMT61B / RFU, FUBP3 / Fold change vs veh, FUBP3 / RFU, TP53 / Fold change vs veh, TP53 / RFU, TNKS2 / Fold change vs veh, TNKS2 / RFU, ZFP14 / Fold change vs veh, ZFP14 / RFU, ACTR2 / Fold change vs veh, ACTR2 / RFU, PPP3R1 / Fold change vs veh, PPP3R1 / RFU, PIK3R1 / Fold change vs veh, PIK3R1 / RFU, HNRNPA1 / Fold change vs veh, HNRNPA1 / RFU, RNF170 / Fold change vs veh, RNF170 / RFU, ZNF28 / Fold change vs veh, ZNF28 / RFU, RNGTT / Fold change vs veh, RNGTT / RFU, OGT / Fold change vs veh, OGT / RFU, BRD1 / Fold change vs veh, BRD1 / RFU, MARS / Fold change vs veh, MARS / RFU, ZNF655 / Fold change vs veh, ZNF655 / RFU, FAHD1 / Fold change vs veh, FAHD1 / RFU, BDP1 / Fold change vs veh, BDP1 / RFU, LRRCC1 / Fold change vs veh, LRRCC1 / RFU, ARID1A / Fold change vs veh, ARID1A / RFU, ZNF146 / Fold change vs veh, ZNF146 / RFU, ZNF330 / Fold change vs veh, ZNF330 / RFU, GPN3 / Fold change vs veh, GPN3 / RFU, C9orf123 / Fold change vs veh, C9orf123 / RFU, N4BP2L2 / Fold change vs veh, N4BP2L2 / RFU, ARFIP1 / Fold change vs veh, ARFIP1 / RFU, FAM179B / Fold change vs veh, FAM179B / RFU, BCL10 / Fold change vs veh, BCL10 / RFU, UHRF1BP1L / Fold change vs veh, UHRF1BP1L / RFU, BET1 / Fold change vs veh, BET1 / RFU, CNOT2 / Fold change vs veh, CNOT2 / RFU, ZNF268 / Fold change vs veh, ZNF268 / Fold change vs veh, ZNF507 / RFU, DGCR2 / Fold change vs veh, DGCR2 / RFU, WDSUB1 / Fold change vs veh, WDSUB1 / Fold change vs veh, HSP90B1 /// MIR3652 / RFU, ADSS / Fold change vs veh, ADSS / RFU, GK / Fold change vs veh, GK / RFU, ZNF148 / Fold change vs veh, ZNF148 / RFU, TAF9 / Fold change vs veh, TAF9 / RFU, SLC1A5 / Fold change vs veh, SLC1A5 / RFU, SLMO2 / Fold change vs veh, SLMO2 / RFU, ABCC4 / Fold change vs veh, ABCC4 / RFU, LOC101060439 /// RAP1B / Fold change vs veh, LOC101060439 /// RAP1B / RFU, RFX7 / Fold change vs veh, RFX7 / RFU, GTPBP10 / Fold change vs veh, GTPBP10 / RFU, CNEP1R1 / Fold change vs veh, CNEP1R1 / RFU, BIVM-ERCC5 /// ERCC5 / Fold change vs veh, BIVM-ERCC5 /// ERCC5 / RFU, ILF3 / Fold change vs veh, ILF3 / RFU 11762660_at / Fold change /veh 11762660_at / RFU VCAN (11757783_s_at) / Fold change /veh VCAN (11757783_s_at) / RFU DDX43 (11728927_at) / Fold change /veh DDX43 (11728927_at) / RFU KRT8 (11758188_x_at) / Fold change /veh KRT8 (11758188_x_at) / RFU NKD1 (11759106_at) / Fold change /veh NKD1 (11759106_at) / RFU SRD5A1 (11742802_a_at) / Fold change /veh SRD5A1 (11742802_a_at) / RFU TPSAB1 /// TPSB2 (11721975_s_at) / Fold change /veh TPSAB1 /// TPSB2 (11721975_s_at) / RFU GSTM3 (11746129_a_at) / Fold change /veh GSTM3 (11746129_a_at) / RFU IL23R (11737362_x_at) / Fold change /veh IL23R (11737362_x_at) / RFU TMEM51 (11727254_a_at) / Fold change /veh TMEM51 (11727254_a_at) / RFU PIWIL2 (11732686_x_at) / Fold change /veh PIWIL2 (11732686_x_at) / RFU ORM1 (11744905_x_at) / Fold change /veh ORM1 (11744905_x_at) / RFU CCDC152 (11743942_at) / Fold change /veh CCDC152 (11743942_at) / RFU ECM1 (11717891_a_at) / Fold change /veh ECM1 (11717891_a_at) / RFU IL23R (11748794_a_at) / Fold change /veh IL23R (11748794_a_at) / RFU TNFAIP8L3 (11732012_x_at) / Fold change /veh TNFAIP8L3 (11732012_x_at) / RFU MBOAT4 (11741988_at) / Fold change /veh MBOAT4 (11741988_at) / RFU 11764193_at / Fold change /veh 11764193_at / RFU TMEM53 (11763286_at) / Fold change /veh TMEM53 (11763286_at) / RFU MAGEB2 (11727129_at) / Fold change /veh MAGEB2 (11727129_at) / RFU TMEM200A (11744735_a_at) / Fold change /veh TMEM200A (11744735_a_at) / RFU CCDC152 (11751479_a_at) / Fold change /veh CCDC152 (11751479_a_at) / RFU FAM211A (11726209_a_at) / Fold change /veh FAM211A (11726209_a_at) / RFU RGS16 (11746705_a_at) / Fold change /veh RGS16 (11746705_a_at) / RFU VCAN (11755009_s_at) / Fold change /veh VCAN (11755009_s_at) / RFU RHOB (11743442_s_at) / Fold change /veh RHOB (11743442_s_at) / RFU RGS16 (11720943_a_at) / Fold change /veh RGS16 (11720943_a_at) / RFU RGS16 (11720944_at) / Fold change /veh RGS16 (11720944_at) / RFU, VPS4B / Fold change vs veh, VPS4B / RFU, CREB1 / Fold change vs veh, CREB1 / RFU, DNAJC13 / Fold change vs veh, DNAJC13 / RFU, GNAQ / Fold change vs veh, GNAQ / RFU, CDK5R1 / Fold change vs veh, CDK5R1 / RFU, ZRANB3 / Fold change vs veh, ZRANB3 / RFU, CUL4A / Fold change vs veh, CUL4A / RFU, CCNY / Fold change vs veh, CCNY / RFU, UFL1 / Fold change vs veh, UFL1 / RFU, COG3 / Fold change vs veh, COG3 / RFU, DIAPH2 / Fold change vs veh, DIAPH2 / RFU, SKA2 / Fold change vs veh, SKA2 / RFU, AFF3 / Fold change vs veh, AFF3 / RFU, LMF1 / Fold change vs veh, LMF1 / RFU, IPO11 / Fold change vs veh, IPO11 / RFU, DFFB / Fold change vs veh, DFFB / RFU, FOXP1 / Fold change vs veh, FOXP1 / RFU, CARD8 / Fold change vs veh, CARD8 / RFU, STRN3 / Fold change vs veh, STRN3 / RFU, ADK / Fold change vs veh, ADK / RFU, RASSF2 / Fold change vs veh, RASSF2 / RFU, WIPF1 / Fold change vs veh, WIPF1 / RFU, LARP1B / Fold change vs veh, LARP1B / RFU, RASA1 / Fold change vs veh, RASA1 / RFU, RB1 / Fold change vs veh, RB1 / RFU, PPFIA1 / Fold change vs veh, PPFIA1 / RFU, MAT2A / Fold change vs veh, MAT2A / RFU, CCT5 / Fold change vs veh, CCT5 / RFU, WDR92 / Fold change vs veh, WDR92 / RFU, CUX1 / Fold change vs veh, CUX1 / RFU, TTC7A / Fold change vs veh, TTC7A / RFU, TMEM135 / Fold change vs veh, TMEM135 / RFU, DEPTOR / Fold change vs veh, DEPTOR / RFU, CPM / Fold change vs veh, CPM / RFU, DNAJB6 / Fold change vs veh, DNAJB6 / RFU, CACNA2D3 / Fold change vs veh, CACNA2D3 / RFU, DTX4 / Fold change vs veh, DTX4 / RFU, TFCP2 / Fold change vs veh, TFCP2 / RFU, GMCL1 /// GMCL1P1 / Fold change vs veh, GMCL1 /// GMCL1P1 / RFU, AEBP2 / Fold change vs veh, AEBP2 / RFU, SNHG1 /// SNORD22 /// SNORD25 /// SNORD26 /// SNORD27 /// SNORD28 /// SNORD29 /// SNORD31 / Fold change vs veh, SNHG1 /// SNORD22 /// SNORD25 /// SNORD26 /// SNORD27 /// SNORD28 /// SNORD29 /// SNORD31 / Fold change (Aza/veh), C12orf56 (ProbeSet 11735607_a_at) / Fold change (ACY-1035/veh), C12orf56 (ProbeSet 11735607_a_at) / Fold change (Aza/veh), FGFR1OP (ProbeSet 11751329_s_at) / Fold change (ACY-1035/veh), FGFR1OP (ProbeSet 11751329_s_at) / Fold change (Aza/veh), VPS36 (ProbeSet 11739960_a_at) / Fold change (ACY-1035/veh), VPS36 (ProbeSet 11739960_a_at) / RFU SYPL1 (11715823_x_at) / Fold change /veh SYPL1 (11715823_x_at) / RFU IGFBP7 (11715501_s_at) / Fold change /veh IGFBP7 (11715501_s_at) / RFU REEP3 (11722064_at) / Fold change /veh REEP3 (11722064_at) / RFU IGLL1 (11728026_x_at) / Fold change /veh IGLL1 (11728026_x_at): dose or concentration left out as unconfirmed
Settings: MV-4-11 cells, 48 hours

Structure (SMILES): Nc1ncn([C@@H]2O[C@H](CO)[C@@H](O)[C@H]2O)c(=O)n1 [azacitidine]
- Fold change /veh TMCC2 (11721928_a_at): 0.97
